Source: US6039963A, “Ceramide compounds, process for their preparation and use” (L'Oreal, priority 1995, dated 2000)

Experiments:
[1] = coefficient of friction of the hair (smoothness), neutral hair, 1% in THF; conditions: for coefficient of friction of the hair, R → T / coefficient of friction of the hair, T → R: neutral hair, 1% in THF; for coefficient of friction of the hair, R → T: root to tip; for coefficient of friction of the hair, T → R: tip to root
Procedure: (§1) A comparative test was performed on the effects on the smoothness of the hair of a solution containing 1% of the compound of Example 4 in tetrahydrofuran (THF), relative to a control consisting of THF, or to a solution containing, in place of the compound according to the invention, either the pure isomer (D-ribo form) corresponding to the compound of Example 4 (compound A) or the compound of Example 1 of the European patent application published under the No. 0,500,437 owned by the present assignee (compound B).
(§2) This test determines the coefficient of friction of the hair by measuring the force to apply to a control mass in order to make it slide at constant speed on two hairs stretched out in parallel. The measurement is made by sliding the mass from the root to the tip of the hairs (R→T) and vice versa (T→R).

[2] = coefficient of friction of the hair (smoothness), bleached hair, 1% in THF; conditions: for coefficient of friction of the hair, R → T: root to tip; for coefficient of friction of the hair, T → R: tip to root
Procedure: as §1, §2

[3] = imperceptible water loss (IWL), evaporimeter (Servomed) on delipidized stratum corneum
Excerpt: This measurement is made using an evaporimeter (Servomed) which quantitatively determines water evaporation, that is to say diffusional water transport, from a sample of previously delipidized stratum corneum which forms a stopper in a cylindrical capsule containing water, the entire assembly being placed in a chamber at controlled temperature and relative humidity.
Sensors allow the partial vapor pressure of water to be measured at two points located at different distances from the sample.
The partial vapor pressure of water is thus determined between the two points, and thus the rate of evaporation in accordance with Fick's law.
A comparative test was performed of the effects on the IWL of a solution containing the compound of Example 2 or 4 in tetrahydrofuran (THF) relative to a solution containing, in place of the compound according to the invention, either the pure isomer (D-ribo form) corresponding to the compound of Example 4 (compound A), or the compound of Example 1 of the European patent application published under the No. 0,500,437 filed by the Applicant (compound B).

| Compound | coefficient of friction of the hair, R → T ([1]; non-rinsed) | coefficient of friction of the hair, T → R ([1]; non-rinsed) | coefficient of friction of the hair, R → T ([1]; rinsed) | coefficient of friction of the hair, T → R ([1]; rinsed) | coefficient of friction of the hair, R → T ([2]; non-rinsed) | coefficient of friction of the hair, T → R ([2]; non-rinsed) | coefficient of friction of the hair, R → T ([2]; rinsed) | coefficient of friction of the hair, T → R ([2]; rinsed) | I.W.L. 20 H (%) ([3]; 1% in THF) | I.W.L. 20 H (%) ([3]; 2% in THF) | coefficient of friction (result in words) ([1]; summary of Table 1, neutral and bleached hair) | I.W.L. 20 H (%) ([3]; 1.5% in THF) |
| --- | --- | --- | --- | --- | --- | --- | --- | --- | --- | --- | --- | --- |
| CCCCCCCCCCCCCCCC(=O)N[C@@H](CO)[C@H](O)[C@H](O)CCCCCCCCCCCCCC [Compound A, reference compound] | 0.000 | 0.000 | 0.125 ± 0.004 | 0.214 ± 0.004 | 0.000 | 0.000 | 0.191 ± 0.004 | 0.264 ± 0.012 | 0 ± 2 | – | – | – |
| CCCCCCCCCCCCCCC(O)C(=O)NC(CO)C(O)C(O)CCCCCCCCCCCCCC (racemic) [Example 2, 2-N-hydroxyhexadecanoylaminooctadecane-1,3,4-triol(4 isomers)] | – | – | – | – | – | – | – | – | – | -31 ± 2 | – | – |
| CCCCCCCCCCCCCCCC(=O)NC(CO)C(O)C(O)CCCCCCCCCCCCCC (stereo not drawn) [Example 4, 2-N-hexadecanoylaminooctadecane-1,3,4-triol (8 isomers)] | 0.089 ± 0.003 | 0.143 ± 0.003 | 0.095 ± 0.004 | 0.147 ± 0.004 | 0.009 ± 0.006 | 0.147 ± 0.006 | 0.085 ± 0.002 | 0.155 ± 0.004 | -9 ± 2 | – | marked decrease in the coefficient of friction | -15 ± 2 |
